Measurements from patent EP0206858A1, “Process for the synthesis of macromolecular derivatives of nicotinamide adenine” (SOCIETE NATIONALE ELF AQUITAINE, priority 1985, dated 1986).

Assays:
L-lactate déshydrogénase = assay: Initial rate of oxidation of the reduced forms with L-lactate dehydrogenase (Example 7); format: biochemical; details: reduced forms after Na2S2O4 treatment; coenzyme 0,17 mM, Tris HCl 50 mM, 16 mM sodium pyruvate, 17 mU L-lactate dehydrogenase; NADH = 100
Experimental: Ces mêmes produits, mais sous forme réduite après traitement au Na2S2O4, sont soumis à un essai de mesure de la vitesse initiale d'oxydation avec l'enzyme L-lactate déshydrogénase.
Cette mesure s'effectue sur un milieu réactionnel de 0,5 ml contenant le coenzyme 0,17 mM (exprimé comme dans l'exemple 6) le même tampon 50 mM, 16 mM en pyruvate de sodium et 17 mU de L-lactate déshydrogènase à 700 U/mg. A titre comparatif la même mesure est effectuée sur NADH et le dérivé de formule 4 réduit.

hydrogénase = assay: Initial rate of reduction with a hydrogenase (Example 6); format: biochemical; details: coenzyme 0,17 mM expressed as bound NAD+, Tris HCl pH8,0 50 mM, hydrogen at saturation, 29 mU hydrogenase; NAD+ = 100
Experimental: Les produits A à E préparés selon les procédés décrits dans les exemples 1 à 5 précédents sont soumis à un essai de mesure de la vitesse initale de réduction avec une hydrogénase.
Cette mesure s'effectue sur un milieu réactionnel de 0,28 ml contenant le coenzyme 0,17 mM, exprimé en NAD^+ lié pour les dérivés du NAD^+, 50 mM en tampon pH8,0 Tris HCl, de l'hydrogène à saturation et 29 mU d'enzyme hy- drogènase à 21 U/mg.
A titre comparatif la même mesure est effectuée sur le noyau NAD^+ et sur les dérivés substitués de formules (4) et (5).

SMILES	Taux initial d'oxydation (%) (L-lactate déshydrogénase)	Taux initial de réduction (%) (hydrogénase)
NCCCCCCNc1nc2c(N)ncnc2n1[C@@H]1O[C@H](COP(=O)(O)OP(=O)(O)OC[C@H]2O[C@@H](N3C=CCC(C(N)=O)=C3)[C@H](O)[C@@H]2O)[C@@H](O)[C@H]1O [Dérivé (4) réduit]	62,5%	
NCCCCCCNc1nc2c(N)ncnc2n1[C@@H]1O[C@H](COP(=O)(O)OP(=O)([O-])OC[C@H]2O[C@@H]([n+]3cccc(C(N)=O)c3)[C@H](O)[C@@H]2O)[C@@H](O)[C@H]1O [Dérivé (4), C^8-(6-aminohexyl)-amino-NAD^+]		50
NCCNc1ncnc2c1ncn2[C@@H]1O[C@H](COP(=O)(O)OP(=O)([O-])OC[C@H]2O[C@@H]([n+]3cccc(C(N)=O)c3)[C@H](O)[C@@H]2O)[C@@H](O)[C@H]1O [Dérivé (5), N^6-(2-aminoéthyl)-NAD^+]		90
NC(=O)C1=CN([C@@H]2O[C@H](COP(=O)(O)OP(=O)(O)OC[C@H]3O[C@@H](n4cnc5c(N)ncnc54)[C@H](O)[C@@H]3O)[C@@H](O)[C@H]2O)C=CC1 [NADH, nicotinamide adénine dinucléotide]	100%	
NC(=O)c1ccc[n+]([C@@H]2O[C@H](COP(=O)([O-])OP(=O)(O)OC[C@H]3O[C@@H](n4cnc5c(N)ncnc54)[C@H](O)[C@@H]3O)[C@@H](O)[C@H]2O)c1 [NAD^+]		100
